The values that follow come from PMC5708526, “Targeting secondary protein complexes in drug discovery: studying the druggability and chemical biology of the HSP70/BAG1 complex” (Chemical Communications (Cambridge, England), 2017).

For orientation: pIC50 means the IC50 on a negative log10 scale, so that one unit is a factor of ten. A low value points to a large IC50. Broadly, the Kd is the constant that tells how readily two partners part at equilibrium.

Like-named read-outs stand apart in the source and are kept apart here. A value given as a limit tells only on which side of the number the result lay.

The target in experiment [1] is T1, HSP72 (Homo sapiens, UniProt P0DMV8).
T1 construct: made in house
Put plainly: FP competition assay, displacement of bisaryl-ATTO-488 11 from primary HSP72 protein. In kind it is binding. The method, then: (§1) To assess what effect the secondary HSP72/BAG1 complex had on the apparent affinity of the non-nucleotide bisaryl-ATTO-488 FP-probe 11, we carried out a similar BAG1 study. […] To confirm that the binding of BAG1 to HSP72 was not mutually exclusive, we screened the nucleotides ADP and ATP in a competition assay with bisaryl-ATTO-488 11 and HSP72 at a 50% bound fraction, with and without a saturating concentration of BAG1 (700 nM) (Fig. S7, ESI ^†). […]
(§2) TRIS Tris(hydroxymethyl)aminomethane
(§3) General Information: Unless otherwise stated the aqueous assay buffer contained 50 mM TRIS base pH 7.4, 150 mM NaCl, 6 mM MgCl2, 1 mM DTT, 0.1% (wt/wt) CHAPS. The assay was conducted using 384 Plus F ProxiPlates (PerkinElmer) with a final assay volume of 10 μL. Plates were centrifuged at 1000 rpm for 1 minute prior to incubation and read using an 2103 Envision Multilable Plate Reader. Excitation and emission wavelengths used for green probes were 480 nm and 535 nm, respectively.
Fluorescence polarisation was measured in units of millipolarization (mP). All experiments were performed in triplicate, unless otherwise stated. Data were plotted and analysed using GraphPad Prism 6, graphical data represents the mean ± standard error of the mean for a single representative experiment. ATP-derived fluorescent probes (1.0 mM in aqueous) were purchased from Jena Bioscience. Human BAG-1M (10.9 μM in 20 mM TRIS base pH 7.4, 100 mM NaCl, 1 mM DTT, 1% (v/v) glycerol) was purchased from Enzo Life Sciences. […]
Compound IC50 determination: Compounds (0.2 μL at 50 x screening concentration in DMSO) were dispensed using an ECHO 550 Liquid Handler (Labcyte Inc.). To the corresponding wells was added, 5 μL of probe molecule (20 nM in assay buffer) and 5 μL of protein (two times their final concentration in assay buffer) to give a 50% bound fraction. Tracer controls (10 nM probe molecule only) and bound tracer controls (10 nM probe in the presence of appropriate protein concentration) were included on each assay plate. IC50 determination was performed using non-linear least squares curve fitting (GraphPad Prism 6, log(inhibitor) vs. response— variable slope (four parameters)). […]
(§4) Compound screen with and without BAG-1: Compounds (0.2 μL at 50 x screening concentration in DMSO) were dispensed using an ECHO 550 Liquid Handler (Labcyte Inc.). To the corresponding wells was added, 5 μL of probe molecule (20 nM in assay buffer), 2.5 μL of HSP72 (four times final concentration in assay buffer) and either 2.5 µL of BAG-1 (2.8 µM in 20 mM TRIS base pH 7.4, 100 mM NaCl, 1 mM DTT, 1% (v/v) glycerol) or 2.5 µL of BAG1 replacement buffer (20 mM TRIS base pH 7.4, 100 mM NaCl, 1 mM DTT, 1% (v/v) glycerol). The assay was performed in duplicate. Tracer controls (10 nM probe molecule only) and bound tracer controls (10 nM probe in the presence of appropriate protein concentration) were included on each assay plate.
IC50 determination was performed using non-linear least squares curve fitting (GraphPad Prism 6, log(inhibitor) vs. response— variable slope (four parameters)).
Fig. S1. Determination of assay binding window for bisaryl-ATTO-488 and ATP-ATTO-488. Polarisation values (mP) for 2-63 nM ATP-ATTO-488 (red) and bisaryl ATTO-488 (blue) in the presence (▼) and absence (▲) of 5 µM HSP72, ↔ represents the assay window at 10 nM probe concentration. All data points were tested in triplicate and are represented as the arithmetic mean ±

The target of another experiment is T2, HSP72/BAG1 complex (Homo sapiens, UniProt P0DMV8).
T2 construct: purchased Enzo Life Sciences (BAG-1M only)
Put plainly: FP competition assay, displacement of bisaryl-ATTO-488 11 from secondary HSP72/BAG1 complex. The experiment is classed as binding. To be noted: for change in affinity for HSP72/BAG1 complex compared to primary protein: 700 nM BAG1. The method, then: as §1, §4
IC50 determination was performed using non-linear least squares curve fitting (GraphPad Prism 6, log(inhibitor) vs. response— variable slope (four parameters)). […]
Fig. S8. Representative competitive binding curves for ADP (A), ATP (B), compound 12 (C) and compound 13 (D) in the presence and absence of BAG1. Competition experiments in the presence of BAG1 (red) were performed using 10 nM biaryl-ATTO-488, 700 nM BAG1 and 140 nM HSP70 to give a 50% bound fraction. Competition experiments in the absence of BAG1 (blue) were performed using 10 nM biaryl-ATTO-488 and 180 nM HSP70 to give a 50% bound fraction. IC50 determination was performed using non-linear regression analysis (log(inhibitor) vs. response - Variable slope (four parameters)), all data points were tested in duplicate and are represented as the arithmetic mean ± SEM.

In a further experiment the target is HSP72-NBD. Further details: method as in PMID 19256508. Particulars: reported affinity for HSP72-NBD by surface-plasmon resonance; cited from earlier work.
Experiment [2] addresses T1, HSP72. Put plainly: FP assay binding window and Z' determination.
Description: As a result, the assay was not statistically robust, so could not be used in competition experiments (Z′ = 0.36).[11],[20],[21] We hypothesised that the high lipophilicity of 10 (clog P = 6.9) was causing the small binding window, either due to aggregation, even at very low concentrations, or its large hydrate volume.[22] Because the lipophilicity of the specific-ligand portion of the probe was fixed by the need for high affinity to the HSP70 target, we focused on changes to the solvent exposed fluorophore. ATTO-488, a green-shifted fluorophore that contains two sulfonic acid groups, was selected as an alternative to fluorescein (see ESI ^†), as this reduced the clog P of the bisaryl probe 11 to –3.9.[21] The binding window of ATTO-488 bisaryl FP-probe 11 measured at a fixed and apparently saturating concentration of HSP72 (5 μM), was now greater than 150 mP (Z′ = 0.63, Fig. 3A and Fig. S1, ESI ^†). […]
as §2, §3
Fluorescence polarisation was measured in units of millipolarization (mP). All experiments were performed in triplicate, unless otherwise stated. Data were plotted and analysed using GraphPad Prism 6, graphical data represents the mean ± standard error of the mean for a single representative experiment. ATP-derived fluorescent probes (1.0 mM in aqueous) were purchased from Jena Bioscience. Human BAG-1M (10.9 μM in 20 mM TRIS base pH 7.4, 100 mM NaCl, 1 mM DTT, 1% (v/v) glycerol) was purchased from Enzo Life Sciences.
Determination of optimal probe concentration: To each well, 5 μL of HSP72 (10 µM in assay buffer) or 5 μL assay buffer and increasing concentrations of probe (5 μL, two-fold dilution series) were added. Fluorescence polarisation values for the tracer ± protein were plotted using GraphPad prism 6. […]
Z’ determination: To each well, 5 µL of probe (20 nM in assay buffer) and either 5 µL of HSP70 (in assay buffer) or 5 µL of assay buffer were added. Fluorescent polarisation values from 96 wells were used to calculate the mean and standard deviation for each data set. Z’-factors were calculated using the equation given below (sample refers to probe in the absence of protein and control refers to probe in the presence of protein). […]

The mark [3] stands for this setting: 180 nM HSP72, 10 nM probe 11, BAG1 buffer, 16 h incubation, geometric mean of at least 3 experiments, read-out: IC50 –BAG1.
Setting [4] is: 700 nM BAG1, 140 nM HSP72, 10 nM probe 11, 16 h incubation, geometric mean of at least 3 experiments, read-out: IC50 +BAG1.

T2 sequence (P0DMV8 whole entry): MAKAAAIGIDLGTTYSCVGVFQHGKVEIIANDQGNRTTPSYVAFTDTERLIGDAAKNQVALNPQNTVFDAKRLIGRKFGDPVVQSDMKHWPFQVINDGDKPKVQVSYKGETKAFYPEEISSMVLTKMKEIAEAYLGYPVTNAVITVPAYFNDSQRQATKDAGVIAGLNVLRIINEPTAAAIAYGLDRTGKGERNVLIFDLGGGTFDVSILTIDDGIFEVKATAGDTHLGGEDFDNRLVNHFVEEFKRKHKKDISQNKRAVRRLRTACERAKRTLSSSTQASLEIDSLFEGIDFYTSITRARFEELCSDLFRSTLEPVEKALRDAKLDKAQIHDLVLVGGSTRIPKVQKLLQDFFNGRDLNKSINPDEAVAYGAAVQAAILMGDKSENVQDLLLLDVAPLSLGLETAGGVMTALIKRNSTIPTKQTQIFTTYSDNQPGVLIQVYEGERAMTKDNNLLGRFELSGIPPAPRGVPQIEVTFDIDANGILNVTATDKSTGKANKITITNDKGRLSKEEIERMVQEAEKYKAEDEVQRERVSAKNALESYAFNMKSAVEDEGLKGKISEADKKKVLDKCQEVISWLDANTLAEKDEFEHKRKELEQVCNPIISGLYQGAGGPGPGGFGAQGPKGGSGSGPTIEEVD
T2 sequence (Q99933 72-345 partner limits assumed): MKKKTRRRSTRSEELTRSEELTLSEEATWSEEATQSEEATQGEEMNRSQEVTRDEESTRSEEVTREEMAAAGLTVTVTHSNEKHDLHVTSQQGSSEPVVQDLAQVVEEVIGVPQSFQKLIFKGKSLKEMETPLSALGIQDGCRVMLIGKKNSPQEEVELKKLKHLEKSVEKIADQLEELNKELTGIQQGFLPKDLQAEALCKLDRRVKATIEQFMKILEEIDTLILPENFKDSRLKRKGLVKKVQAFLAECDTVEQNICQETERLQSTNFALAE
T1 sequence (P0DMV8 whole entry): as the sequence (P0DMV8 whole entry) above

As for `Nc1ncnc2c1ncn2[C@@H]1O[C@H](COP(=O)(O)OP(=O)(O)O)[C@@H](O)[C@H]1O` [ADP], the IC50 at HSP72 [1] (setting [3]) was found to be 330 nM; at HSP72/BAG1 complex (setting [4]), 2200 nM. Besides, on HSP72/BAG1 complex (700 nM BAG1, n = 3), the pIC50 is 5.66 ± 0.04. The “decrease in affinity for the secondary complex compared to primary HSP72” value on HSP72/BAG1 complex (700 nM BAG1 vs without BAG1) came out at 6.8 fold.

Turning to `Nc1ncnc2c1ncn2[C@@H]1O[C@H](COP(=O)(O)OP(=O)(O)OP(=O)(O)O)[C@@H](O)[C@H]1O` [ATP], the IC50 was 650 nM on HSP72 [1] (setting [3]) and more than 10000 nM on HSP72/BAG1 complex (setting [4]).

Regarding `Nc1ncnc2c1nc(NCc1ccc3ncccc3c1)n2[C@@H]1O[C@H](COCc2ccc(C(F)(F)F)cc2)[C@@H](O)[C@H]1O` [compound 2], the IC50 on HSP72 [1] (competition with FP-probe 11, HSP72, n = 3, read-out: pIC50 (converted)) is 135 nM; at HSP72 [1] (competition with FP-probe 11, HSP72, read-out: IC50) it was 137 nM. At HSP72-NBD, the Kd is 60 nM.

With `O=C(NCCCCCCNc1ncnc2c1nc(NCc1ccc3ncccc3c1)n2[C@@H]1O[C@H](COCc2ccc(C(F)(F)F)cc2)[C@@H](O)[C@H]1O)c1ccc(C(=O)O)c(-c2c3ccc(=O)cc-3oc3cc(O)ccc23)c1` [compound 10], the “Z'” value on HSP72 [2] (FP assay with HSP72) is on record as 0.36. Besides, the “assay (binding) window” value on HSP72 [2] (presence vs absence of 5 μM HSP72) is reported as approximately 30 mP.

Consider `Nc1ncnc2c1nc(NCc1ccc3ncccc3c1)n2[C@@H]1O[C@H](CO)[C@@H](O)[C@H]1O` [compound 12], for which the IC50 at HSP72 [1] (setting [3]) and at HSP72/BAG1 complex (setting [4]) was 2000 nM each time. Besides, the “change in affinity for HSP72/BAG1 complex compared to primary protein” value at HSP72/BAG1 complex is “no significant change”.

Consider `NC(=O)c1cn([C@@H]2O[C@H](CO)[C@@H](O)[C@H]2O)c2ncnc(N)c12` [compound 13, sangivamycin], for which the IC50 was determined as 2400 nM at HSP72 [1] and 1000 nM on HSP72/BAG1 complex. Further, the “change in affinity for HSP72/BAG1 complex compared to primary protein” value on HSP72/BAG1 complex is “no significant change”.
